In US20150158931A1, “CYSTEINE PROTEASE CAPTURING AGENTS” (Stichting Het Nederlands Kanker Instituut, priority 2012, published 2015):
Primed or numbered codes have the meaning given here. PEG4′ = not defined here; PRG = propargyl

Columns and labels:
[1] = system: SENPs (GST-SENP1, SENP6, SENP7); assay: Labeling of SENPs with SUMO-PRG peptides (SDS-PAGE, fluorescence); format: binding, human; settings: for selective capturing / binding of SENPs: SENPs 1 μM, peptides 50 μM, 1 hour at RT; for binding to SENPs denatured prior to addition of the peptides: hydrolases denatured (1x LB, 5 min boiling) before peptide
Protocol: The following experiment was performed to confirm that propargyl modified SUMO peptide (fragments) in accordance with the invention are selective capturing agent for the corresponding SENPs. The following SUMO peptides and SENPs were used in the Experiment. • SUMO peptides: • SUMO1=Cy5-PEG4-YQEQTG-PRG • SUMO2,3=Cy5-PEG4-FQQQTG-PRG • SENPs: • GST-SENP1 (43 kDa) • SENP6 (33.1 kDa) • SENP7 (37.2 kDa)
The SENPs (1 μM final concentration) were incubated with the SUMO-PRG peptides (50 μM final concentrations) for 1 hour at RT in buffer (20 mM Tris, 100 mM NaCl, 1 mM DTT, pH 7.5). Samples were denatured using 1× LB and boiled for 5 min. As a control, the SENPs were denatured (1×LB and 5 min. boiling) prior to treatment with the SUMO-PRG peptides. Samples were resolved by SDS-PAGE (12% polyacryl amide, MES buffer) and proteins were visualized by fluorescence (λex,em=625,680 nm) and CBB staining.

DUBs in cell lysates = assay: Labeling of active DUBs in cell lysates at endogenous levels with fluorescent probe; format: binding; settings: fluorescence
[2] = system: GFP-DUB fusions (catalytic cysteine to serine mutants); assay: Labeling of overexpressed GFP-DUB fusions in cell lysates; format: binding; settings: transfected cells, lysate
Protocol: For overexpression of GFP-tagged DUBs in cells, wild type USP14, Otub1, Otub2, Otud1 and POH1 were subcloned from pDEST-cDNA constructs (Addgene) into the eGFP-C1 vector system (Clontech) at XhoI/EcoRI restriction sites. Mutagenesis of catalytic Cysteines was performed by standard protocols (Stratagene) using the following primers (sites of mutagenesis underlined): USP14-C114S forward-CTTGGTAACACTTCTTACATGAATGCC, reverse-GGCATTCATGTAAGAAGTGTTACCAAG; Otub1-C9/S forward-CCTGACGGCAACTCTTTCTATCGGGC, reverse-GC CCGATAGAAAGAGTTGCCGTCAGG; Otub2-C51S forward-GG GATGGGAACTCCTTCTACAGGGCC, reverse-GGCCCTGTAGAAGGAGTTCCCATCCC. […] Reactions were stopped by the addition sample loading buffer supplemented with (β-mercaptoethanol, followed by boiling for 10 min. Samples were resolved on 4-12% MOPS NU-PAGE Gels (Invitrogen) and probe reactivity was assessed by TAMRA fluorescence scanning as described above. Gels were then transferred onto Nitrocellulose membranes and immunoblotted using anti-GFP serum produced in rabbit and mouse anti-β-actin (Sigma-Aldrich). Immunoblots were visualized using a Licor Odyssey. The following fluorescent secondary antibodies purchased from LICOR were used: anti-mouse-680, anti-rabbit-800.

UCH-L3 [3] = target: T1, UCH-L3 (Homo sapiens, UniProt P15374); assay: Reaction between Ubiquitin75-propargylamide and UCH-L3 (LC-MS, SDS-PAGE); format: binding
T1 construct: made in house
T1 sequence (P15374 1-230): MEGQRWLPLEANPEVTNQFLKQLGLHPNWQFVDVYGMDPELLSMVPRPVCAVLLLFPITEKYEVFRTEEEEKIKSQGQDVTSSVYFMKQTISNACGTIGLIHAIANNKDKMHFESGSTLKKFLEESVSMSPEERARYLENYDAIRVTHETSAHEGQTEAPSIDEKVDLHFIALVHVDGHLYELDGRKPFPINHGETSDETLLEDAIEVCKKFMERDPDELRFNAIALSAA
Protocol: Recombinant UCH-L3 was expressed and purified as described previously (C. N. Larsen, J. S. Price, K. D. Wilkinson, Biochemistry 35, 6735 (1996)).
(§1) General procedure: DUB was dissolved in PBS with 5 mM dithiothreitol to a concentration of 1 mg/mL.

cysteine protease DUBs = assay: Reaction between Ubiquitin75-propargylamide and DUBs, in vitro labeling; format: binding; settings: including OTU-domain containing DUBs
Protocol: as §1

papain = target: T2, papain (Carica papaya, UniProt P00784); assay: In vitro labeling reaction of cysteine proteases: papain; format: binding
T2 construct: papain, a general cysteine protease obtained from Papaya Latex; from tissue; host or cells: papaya latex
T2 sequence (P00784 134-345): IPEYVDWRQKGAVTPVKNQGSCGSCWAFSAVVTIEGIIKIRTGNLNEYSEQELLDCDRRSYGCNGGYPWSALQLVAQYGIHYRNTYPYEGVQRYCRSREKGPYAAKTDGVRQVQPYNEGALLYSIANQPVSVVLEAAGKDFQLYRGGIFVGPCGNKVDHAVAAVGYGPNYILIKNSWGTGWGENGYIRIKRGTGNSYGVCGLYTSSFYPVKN
Protocol: as §1

SENP-1 = assay: In vitro labeling reaction of cysteine proteases: SENP-1; format: binding
Protocol: as §1

ubiquitin ligase E1 = target: T3, ubiquitin ligase E1 (Homo sapiens, UniProt P22314); assay: In vitro labeling reaction: ubiquitin ligase E1; format: binding
T3 sequence (P22314 1-1058): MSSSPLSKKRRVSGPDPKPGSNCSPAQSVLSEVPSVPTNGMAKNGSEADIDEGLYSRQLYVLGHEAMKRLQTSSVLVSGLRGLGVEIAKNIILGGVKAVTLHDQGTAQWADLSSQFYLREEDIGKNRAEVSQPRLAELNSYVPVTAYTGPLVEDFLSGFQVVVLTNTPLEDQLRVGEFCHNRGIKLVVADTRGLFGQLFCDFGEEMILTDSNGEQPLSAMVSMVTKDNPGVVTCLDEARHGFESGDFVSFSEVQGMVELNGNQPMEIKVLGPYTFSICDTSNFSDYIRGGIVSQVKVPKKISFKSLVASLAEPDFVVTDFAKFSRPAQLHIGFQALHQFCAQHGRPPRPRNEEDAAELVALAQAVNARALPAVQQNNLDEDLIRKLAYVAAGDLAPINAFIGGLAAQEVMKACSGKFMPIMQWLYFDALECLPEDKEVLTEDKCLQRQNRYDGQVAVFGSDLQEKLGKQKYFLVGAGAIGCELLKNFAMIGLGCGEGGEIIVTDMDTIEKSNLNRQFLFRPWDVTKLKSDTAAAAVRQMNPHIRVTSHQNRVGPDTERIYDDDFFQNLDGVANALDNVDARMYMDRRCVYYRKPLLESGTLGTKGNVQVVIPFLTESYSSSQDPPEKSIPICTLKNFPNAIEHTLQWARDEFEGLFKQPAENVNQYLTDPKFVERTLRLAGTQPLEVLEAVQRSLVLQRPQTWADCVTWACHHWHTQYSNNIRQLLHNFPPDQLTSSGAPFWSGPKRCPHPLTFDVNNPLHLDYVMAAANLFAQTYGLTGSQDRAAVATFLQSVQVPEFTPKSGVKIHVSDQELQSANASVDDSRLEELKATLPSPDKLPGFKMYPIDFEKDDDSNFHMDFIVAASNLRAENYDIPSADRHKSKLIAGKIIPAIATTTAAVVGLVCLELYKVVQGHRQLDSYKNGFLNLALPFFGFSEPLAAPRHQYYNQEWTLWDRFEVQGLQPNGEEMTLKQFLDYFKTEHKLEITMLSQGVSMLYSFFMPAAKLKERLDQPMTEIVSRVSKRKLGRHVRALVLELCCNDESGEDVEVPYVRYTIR
Protocol: as §1

UCH-L3 [4] = target: T1, UCH-L3; assay: Acid cleavage of the complex between Ubiquitin75-propargylamide and the DUBs; settings: incubation with various acids
Protocol: To a solution of Ubiquitin75-propargylamide-UCH-L3 complex in PBS (3 mg/mL; 10 μL) was added a 3-fold concentrated solution of the tested acid. The reactions were incubated overnight and analyzed by SDS-PAGE chromatography and/or mass spectrometry.

UCH-L3 [5] = target: T1, UCH-L3; assay: Thioradical-mediated cleavage of Ub-Prg-UCH-L3 complex; settings: ethane thiol 50 mM, VA-044 10 mM, three hours
Protocol: The reaction was incubated for 30 minutes at 37° C. and was buffer exchanged into water by PD-10 column (GE Healthcare) and lyophilized overnight. The resulting white powder was dissolved in PBS (100 μL) and to 90 μL of this solution 10 μL of ethanethiol was added (143 μmole) and VA-044 to a final concentration of 10 mM. The reaction was shaken at 37° C. for three hours prior to LC-MS analysis.
To a solution of Ub-prg-UCH-L3 complex in PBS (0.5 mg/mL; 80 μL) various amounts of thiol were added to the final concentrations indicated. Radical initiator VA-044 was added at the concentrations indicated and the reaction was shaken at 37° C. for 3 hours after which the reactions were analysed by non-reducing SDS-PAGE.

Which results are given for “Cy5-PEG4-FQQQTG-PRG ({Cy5-PEG4′}-FQQQTG-{PRG}) [SUMO2,3, truncated fluorescent C-terminal propargylated SUMO peptide, C-termini of SUMO-2 and SUMO-3]”?
selective capturing / binding of SENPs [1]: selective binding; binding to SENPs denatured prior to addition of the peptides [1]: completely abolishes binding

What does the source list for “Cy5-PEG4-YQEQTG-PRG ({Cy5-PEG4′}-YQEQTG-{PRG}) [SUMO1, truncated fluorescent C-terminal propargylated SUMO peptide, C-terminus of SUMO-1]”?
selective capturing / binding of SENPs [1]: selective binding; binding to SENPs denatured prior to addition of the peptides [1]: completely abolishes binding

“TMR-Ub-Prg: N-terminally tetramethylrhodamine (TMR) labeled analogue of Ub-Prg” was tested. Which “labeling of active DUBs in lysates at endogenous levels” value (DUBs in cell lysates) did it give?
The value was “clear labeling results”.

What about the “reaction with DUB mutants, active site cysteine mutated to serine” value [2] of the same substance?
The value was “failed to react”.

Which results are given for Ubiquitin75-propargylamide [Ub-Prg]?
bond formation with UCH-L3, stable to denaturing LC-MS and denaturing SDS-PAGE (UCH-L3 [3]; 1.2 molar equivalents, 37 °C, 30 minutes): forms a bond with UCH-L3; reactivity with UCH-L3 after pre-treatment with iodoacetamide (UCH-L3 [3]; UCH-L3 pre-treated with general alkylating agent iodoacetamide): abolished all reactivity; complex formation with radical scavenger (UCH-L3 [3]; presence of excess radical scavenger): complex formation; reaction in vitro with cysteine protease DUBs (cysteine protease DUBs): react in vitro with all cysteine protease DUBs tested; reaction in vitro with cysteine protease DUBs (cysteine protease DUBs; listed as Ubiquitin-propargyl): reacts with all classes of cysteine deubiquitinating enzymes; reactivity towards papain (papain): unreactive; reactivity towards SENP-1 (SENP-1): unreactive; reactivity towards ubiquitin ligase E1 (ubiquitin ligase E1): no reactivity; reaction with DUB mutants, active site cysteine mutated to serine [2]: abolished binding; acid lability of complex with UCH-L3 (UCH-L3 [4]): cleavage of the complex; thioradical treatment of purified complex with UCH-L3 (UCH-L3 [5]): cleavage was observed
